Reference: US20210180095A1 (SHELL OIL COMPANY, priority 2017, published 2021)
Blank lines part the entries; values can stand above or below the molecule they belong to.

What was measured:
[1] = biological target: T1, P. thermopropionicum HmfF (Pelotomaculum thermopropionicum, UniProt A5D4Z9); details: substrate specificity
Experimental: Subsequently, HmfF was purified and assayed under anaerobic conditions. […] All subsequent assays were performed at 50° C.

[2] = system: P. thermopropionicum HmfF R305Q variant; assay: Reconstituted holo-PtHmfF decarboxylation assay (FIG. 7), R305Q variant; assay type: biochemical, Pelotomaculum thermopropionicum; details: 1 mM substrate
Experimental: (§1) Mutagenesis primers were designed using the QuikChange® Primer Design Program (http://www.genomics.agilent.com/primerDesignProgram.jsp). PCR was performed using Phusion polymerase (NEB). Template was removed by DpnI (NEB) digest and the PCR product transformed into E. coli NEB5-alpha. Once the presence of the desired mutation was confirmed by DNA sequencing, the plasmid was transformed into E. coli BL21(DE3). The three variants transformed into E. coli BL21(DE3) includes one with a mutation of H297N, a second with H297F, and a third of R305Q.
(§2) Protein was expressed in BL21(DE3) grown at 37° C./180 rpm in LB broth supplemented with 50 μg/ml ampicillin At mid-log phase cells were induced with 0.25 mM IPTG and grown overnight at 15° C./180 rpm and then harvested by centrifugation (4° C., 7000 g for 10 minutes). Cell pellets were resuspended in buffer A (200 mM KCl, 1 mM MnCl2, 50 mM Tris pH 7.5) supplemented with DNase, RNase, lysozyme (Sigma) and Complete EDTA-free protease inhibitor cocktail (Roche). Cells were lysed using a French press at 1500 psi and the lysate incubated at 50° C. for 30 minutes to precipitate host proteins. The lysate was clarified by centrifugation at 125,000 g for 90 minutes. […]

[3] = system: P. thermopropionicum HmfF wild-type (WT); assay: Reconstituted holo-PtHmfF decarboxylation assay (FIG. 7), wild-type; assay type: biochemical, Pelotomaculum thermopropionicum; details: 1 mM substrate; for observed kcat (decarboxylation activity): pH6, 50° C., anaerobic
Experimental: Reconstitution and Assays were performed anaerobically within a 100% N2-atmosphere glove box (Belle Technology, UK).
Holo-PtHmfF (e.g., an enzyme with its cofactors) was obtained by reconstituting single expressed HmfF with reduced prFMN under anaerobic conditions as described previously for the UbiD from E. coli in Marshall, S. A., Fisher, K., Ni Cheallaigh, A., White, M. D., Payne, K. A., Parker, D. A., Rigby, S. E., and Leys, D. (2017) Oxidative Maturation and Structural Characterization of Prenylated FMN Binding by UbiD, a Decarboxylase Involved in Bacterial Ubiquinone Biosynthesis. The Journal of biological chemistry 292, 4623-4637. In general, a reaction consisting of 1 mM FMN, 2 mM DMAP (Sigma), 50 μM Fre reductase and 50 μM UbiX in buffer A was started by the addition of 5 mM NADH. Following incubation, the reaction mixture was filtered through 10 k MWCO centrifugal concentrator to remove UbiX and Fre proteins. The filtrate containing the prFMN product was used to reconstitute anaerobic apo-HmfF (e.g., an enzyme without its cofactors) in a 2:1 molar ratio, with excess cofactor being removed using a PD25 desalting column (GE Healthcare). Use of holo-PtHmfF ensures the activity observed in the enzymatic activity assay below is minimally impacted by the presence or absence of cofactors.
Assays were performed by UV-vis spectroscopy using a Cary 50 Bio spectrophotometer (Varian).

[4] = system: P. thermopropionicum HmfF H297F variant; assay: Reconstituted holo-PtHmfF decarboxylation assay (FIG. 7), H297F variant; assay type: biochemical, Pelotomaculum thermopropionicum; details: 1 mM substrate
Experimental: as §1, §2

[5] = biological target: T1, P. thermopropionicum HmfF; assay: HmfF carboxylation reactions assayed by HPLC; assay type: biochemical; details: 50 mM furoic acid, 3 M ammonium bicarbonate, 50° C. overnight
Experimental: (§3) […] The sample was centrifuged at 16100 g to remove precipitate and […] added to 980 μl 50% v/v H2O/acetonitrile. Sample analysis was performed using an Agilent 1260 Infinity Series HPLC equipped with a UV detector. The stationary phase was a Kinetex […] C18 100A column, 250×4.6 mm The mobile phase was acetonitrile/water (50/50) with 0.1% TFA at a flow rate of 1 ml/min, and unless otherwise stated detection was performed at a wavelength of 265 nm.

G. kaustophilus HmfF = assay: HmfF carboxylation reactions assayed by HPLC; assay type: biochemical, Geobacillus kaustophilus; details: 50 mM furoic acid, 3 M ammonium bicarbonate, 50° C. overnight
Experimental: as §3

[6] = Effect of pH, temperature and oxygen on HmfF decarboxylation activity (UV-vis)

Molecule: O=C(O)c1cccc(C(=O)O)n1 [2,6-pyridinedicarboxylic acid]
decarboxylation by purified P. thermopropionicum HmfF [1]: no decarboxylation detected

Molecule: O=C(O)c1ccc(C(=O)O)o1 [FDCA, 2,5-furandicarboxylic acid]
decarboxylation by purified P. thermopropionicum HmfF [1]: capable of decarboxylating
decarboxylation activity [2]: did not exhibit any measurable decarboxylation activity
observed kcat (decarboxylation activity) [3]: greater than 4 kcat/s
decarboxylation activity [4]: did not exhibit any measurable decarboxylation activity

Molecule: O=C(O)c1ccc(C(=O)O)[nH]1 [PDCA, 2,5-pyrrol-dicarboxylic acid]
decarboxylation activity [2]: did not exhibit any measurable decarboxylation activity
decarboxylation activity relative to the activity for FDCA [3]: about 2.5%
observed kcat (decarboxylation activity) [3]: less than 0.1 kcat/s
decarboxylation activity [4]: did not exhibit any measurable decarboxylation activity

Molecule: O=C(O)c1ccco1 [furoic acid]
decarboxylation by purified P. thermopropionicum HmfF [1]: could not further decarboxylate
carboxylation of furoic acid to FDCA (HPLC peak) [5]: co-migrates with an FDCA standard
carboxylation of furoic acid to FDCA (HPLC peak) (G. kaustophilus HmfF): co-migrates with an FDCA standard

Molecule: O=C(O)c1ccc(C(=O)O)cc1 [terephthalic acid]
decarboxylation by purified P. thermopropionicum HmfF [1]: no decarboxylation detected

B1: P. thermopropionicum HmfF: HmfF enzyme (2,5-furandicarboxylic acid decarboxylase) of SEQ ID NO:1 from the thermophilic bacterium Pelotomaculum thermopropionicum (protein, listed as Pelotomaculum thermopropionicum)
chain: MSHSLREWLAFLEGKGKLKRVRKEVDPVFEIAALGKQADGICSLLFERVKGYAVPVVTGLAGDRELFAAAMSVPVEGMLEKLAAAVENPVPCRLVSPDGAPVKECIIRENIDLLKMLPIPTHHAGDAGPYITAAILIARDPDSGVRNVSIHRLQVTGPDRLGILILPRHLWHFFGKAERAGRPLEIALAIGVHPAVLLASQATTRLGVDELEIASALLPQPLELVKCETVDVEVPAGAEIVIEGKILPGVREVEGPFGEYPRYYGPAAPRPVVEVTAVTHRRQPVYHTIIPASREHLLLGGIAREAVLLQTVRQAVPTVKNVHLTPGGSCRYHAVISIEKKHEGEAKNAIFAAFTSSSEVKHVVVVDHEINIFDPEEVEWAVATRCQAGRDVFIVKDAMGNRLDPSSRDGVSDKMGIDATIPLNLPGERFERISIPGLDKIKLADYLE
activation energy ([6]; Arrhenius plot of the 25° C.-50° C. data points): 19.3 kcal/mol
temperature maximum of enzyme activity ([6]; FDCA decarboxylation, anaerobic): ~60 °C

The next lines start with the values.

decarboxylation by purified P. thermopropionicum HmfF [1]: no decarboxylation detected
Molecule: O=C(O)c1ccoc1C(=O)O [2,3-furandicarboxylic acid]

decarboxylation by purified P. thermopropionicum HmfF [1]: no decarboxylation detected
Molecule: O=C(O)c1ccc(C(=O)O)s1 [2,5-thiophenedicarboxylic acid]

decarboxylation by purified P. thermopropionicum HmfF [1]: no decarboxylation detected
Molecule: O=C(O)c1ccc(CO)o1 [5-hydroxymethyl-2-furoic acid]

decarboxylation by purified P. thermopropionicum HmfF [1]: no decarboxylation detected
Molecule: O=C(O)c1ccc([N+](=O)[O-])o1 [5-nitro-2-furoic acid]

decarboxylation by purified P. thermopropionicum HmfF [1]: no decarboxylation detected
Molecule: O=C(O)c1cccc(C(=O)O)c1 [isophthalic acid]

decarboxylation by purified P. thermopropionicum HmfF [1]: no decarboxylation detected
Molecule: O=C(O)/C=C/C=C/C(=O)O [muconic acid]
